Values after ≈ are worked out from the molar mass of the structure shown.
Experiments:
Type in all cases: cell-based
[1] = system: STAPHYLOCOCCUS AUREUS ATCC 6538P; test: In vitro antibacterial activity, MIC, BHI agar dilution; settings: S. aureus ATCC 6538P, 35-37° C., 20 to 24 hours, unit assumed
[2] = system: STAPHYLOCOCCUS AUREUS A5177; test: as above; settings: S. aureus A5177, unit assumed
[3] = system: STAPHYLOCOCCUS AUREUS A-5278; test: as above; settings: S. aureus A-5278, unit assumed
[4] = system: STAPHYLOCOCCUS AUREUS CMX 642A; test: as above; settings: S. aureus CMX 642A, unit assumed
[5] = system: STAPHYLOCOCCUS AUREUS NCTC10649M; test: as above; settings: S. aureus NCTC10649M, unit assumed
[6] = system: STAPHYLOCOCCUS AUREUS CMX 553; test: as above; settings: S. aureus CMX 553, unit assumed
[7] = system: STAPHYLOCOCCUS AUREUS 1775; test: as above; settings: S. aureus 1775, unit assumed
[8] = system: STAPHYLOCOCCUS EPIDERMIDIS 3519; settings: S. epidermidis 3519; BHI agar; unit assumed
EN[…] ATCC 8043 = test: In vitro antibacterial activity, MIC, BHI agar dilution; settings: E. faecium ATCC 8043, unit assumed
In short: (§1)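 BHI agar dilution: twelve plates with successive compound dilutions, inoculated by replicator with 1:100 culture dilutions (1:10 for slow growers such as Micrococcus and Streptococcus), 20 to 24 hours at 35-37° C. MIC was the lowest concentration giving no growth, slight haze or sparse isolated colonies versus drug-free control; erythromycin A as class reference.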

M[…] ATCC 4698 = test: as above; settings: M. luteus ATCC 4698, unit assumed
In short: as §1

M[…] ATCC 9341 = test: as above; settings: M. luteus ATCC 9341, unit assumed
In short: as §1

STR[…] 508 = test: as above; settings: S. agalactiae CMX 508, unit assumed
In short: as §1

[9] = system: STREPTOCOCCUS BOVIS A-5169; test: as above; settings: S. bovis A-5169, unit assumed
[10] = system: STREPTOCOCCUS PYOGENES EES61; test: as above; settings: S. pyogenes EES61, unit assumed
[11] = system: STREPTOCOCCUS PYOGENES 930; test: as above; settings: S. pyogenes 930, unit assumed
[12] = system: STREPTOCOCCUS PYOGENES PIU 2548; test: as above; settings: S. pyogenes PIU 2548, unit assumed
ESCHERICHIA COLI JUHL = settings: E. coli JUHL; BHI agar; unit assumed
ESCHERICHIA COLI SS = test: In vitro antibacterial activity, MIC, BHI agar dilution; settings: E. coli SS, unit assumed
ESCHERICHIA COLI DC-2 = test: as above; settings: E. coli DC-2, unit assumed
ESCHERICHIA COLI H560 = test: as above; settings: E. coli H560, unit assumed
ESCHERICHIA COLI KNK 437 = settings: E. coli KNK 437; BHI agar; unit assumed
[13] = system: ENTEROBACTER AEROGENES ATCC 13048; test: In vitro antibacterial activity, MIC, BHI agar dilution; settings: E. aerogenes ATCC 13048, unit assumed
[14] = system: KLEBSIELLA PNEUMONIAE ATCC 8045; test: as above; settings: K. pneumoniae ATCC 8045, unit assumed
[15] = system: PROVIDENCIA STUARTII CMX 640; settings: P. stuartii CMX 640; BHI agar; unit assumed
[16] = system: PSEUDOMONAS AERUGINOSA BMH10; test: In vitro antibacterial activity, MIC, BHI agar dilution; settings: P. aeruginosa BMH10, unit assumed
[17] = system: PSEUDOMONAS AERUGINOSA 5007; test: as above; settings: P. aeruginosa 5007, unit assumed
[18] = system: PSEUDOMONAS AERUGINOSA K799/WT; test: as above; settings: P. aeruginosa K799/WT, unit assumed
[19] = system: PSEUDOMONAS AERUGINOSA K799/61; test: as above; settings: P. aeruginosa K799/61, unit assumed
PSEUDOMONAS CEPACIA 296I = test: as above; settings: P. cepacia 296I, unit assumed
[20] = system: PSEUDOMONAS AERUGINOSA DPHD-5263; test: as above; settings: P. aeruginosa DPHD-5263, unit assumed
[21] = system: PSEUDOMONAS AERUGINOSA DPHD-2862; test: as above; settings: P. aeruginosa DPHD-2862, unit assumed
CANDIDA ALBICANS CCH 442 = test: as above; settings: C. albicans CCH 442, unit assumed
[22] = system: MYCOBACTERIUM SMEGMATIS ATCC 114; test: as above; settings: M. smegmatis ATCC 114, unit assumed

## CC[C@H]1OC(=O)[C@H](C)C(=O)[C@H](C)[C@@H](O[C@@H]2O[C@H](C)C[C@H](N(C)C)[C@H]2O)[C@](C)(OC)C[C@@H](C)C2=NC3CN(CCc4ccc([N+](=O)[O-])cc4)CC3N3C(=O)O[C@@]1(C)[C@H]3[C@H]2C (stereo partly drawn) [Example 118]
[1]
  MIC: 0.39 µg/mL (≈ 0.471 µM)
[2]
  MIC: 0.2 µg/mL (≈ 0.242 µM)
[3]
  MIC: > 100 µg/mL
[4]
  MIC: 0.39 µg/mL (≈ 0.471 µM)
[5]
  MIC: 0.39 µg/mL (≈ 0.471 µM)
[6]
  MIC: 0.39 µg/mL (≈ 0.471 µM)
[7]
  MIC: > 100 µg/mL
[8]
  MIC: 0.39 µg/mL (≈ 0.471 µM)
EN[…] ATCC 8043
  MIC: 0.2 µg/mL (≈ 0.242 µM)
M[…] ATCC 4698
  MIC: 0.2 µg/mL (≈ 0.242 µM)
M[…] ATCC 9341
  MIC: 0.05 µg/mL (≈ 0.0604 µM)
STR[…] 508
  MIC: 0.02 µg/mL (≈ 0.0242 µM)
[9]
  MIC: ≤ 0.005 µg/mL
[10]
  MIC: 0.05 µg/mL (≈ 0.0604 µM)
[11]
  MIC: > 100 µg/mL
[12]
  MIC: 0.78 µg/mL (≈ 0.942 µM)
ESCHERICHIA COLI JUHL
  MIC: 100 µg/mL (≈ 121 µM)
ESCHERICHIA COLI SS
  MIC: 0.78 µg/mL (≈ 0.942 µM)
ESCHERICHIA COLI DC-2
  MIC: > 100 µg/mL
ESCHERICHIA COLI H560
  MIC: 100 µg/mL (≈ 121 µM)
ESCHERICHIA COLI KNK 437
  MIC: > 100 µg/mL
[13]
  MIC: > 100 µg/mL
[14]
  MIC: > 100 µg/mL
[15]
  MIC: > 100 µg/mL
[16]
  MIC: > 100 µg/mL
[17]
  MIC: > 100 µg/mL
[18]
  MIC: > 100 µg/mL
[19]
  MIC: 0.78 µg/mL (≈ 0.942 µM)
PSEUDOMONAS CEPACIA 296I
  MIC: > 100 µg/mL
[20]
  MIC: > 100 µg/mL
[21]
  MIC: > 100 µg/mL
CANDIDA ALBICANS CCH 442
  MIC: > 100 µg/mL
[22]
  MIC: 0.78 µg/mL (≈ 0.942 µM)

## CC[C@H]1OC(=O)[C@H](C)C(=O)[C@H](C)[C@@H](O[C@@H]2O[C@H](C)C[C@H](N(C)C)[C@H]2O)[C@](C)(OC)C[C@@H](C)C2=NC3CN(CCc4ccc(N)cc4)CC3N3C(=O)O[C@@]1(C)[C@H]3[C@H]2C (stereo partly drawn) [Example 121]
[1]
  MIC: 0.78 µg/mL (≈ 0.977 µM)
[2]
  MIC: 0.78 µg/mL (≈ 0.977 µM)
[3]
  MIC: > 100 µg/mL
[4]
  MIC: 0.78 µg/mL (≈ 0.977 µM)
[5]
  MIC: 0.78 µg/mL (≈ 0.977 µM)
[6]
  MIC: 0.78 µg/mL (≈ 0.977 µM)
[7]
  MIC: > 100 µg/mL
[8]
  MIC: 0.78 µg/mL (≈ 0.977 µM)
EN[…] ATCC 8043
  MIC: 0.05 µg/mL (≈ 0.0627 µM)
M[…] ATCC 4698
  MIC: 0.2 µg/mL (≈ 0.251 µM)
M[…] ATCC 9341
  MIC: 0.05 µg/mL (≈ 0.0627 µM)
STR[…] 508
  MIC: 0.02 µg/mL (≈ 0.0251 µM)
[9]
  MIC: 0.01 µg/mL (≈ 0.0125 µM)
[10]
  MIC: 0.02 µg/mL (≈ 0.0251 µM)
[11]
  MIC: > 100 µg/mL
[12]
  MIC: 0.78 µg/mL (≈ 0.977 µM)
ESCHERICHIA COLI JUHL
  MIC: 50 µg/mL (≈ 62.7 µM)
ESCHERICHIA COLI SS
  MIC: 0.2 µg/mL (≈ 0.251 µM)
ESCHERICHIA COLI DC-2
  MIC: 50 µg/mL (≈ 62.7 µM)
ESCHERICHIA COLI H560
  MIC: 25 µg/mL (≈ 31.3 µM)
ESCHERICHIA COLI KNK 437
  MIC: 50 µg/mL (≈ 62.7 µM)
[13]
  MIC: 100 µg/mL (≈ 125 µM)
[14]
  MIC: 100 µg/mL (≈ 125 µM)
[15]
  MIC: > 100 µg/mL
[16]
  MIC: 100 µg/mL (≈ 125 µM)
[17]
  MIC: > 100 µg/mL
[18]
  MIC: > 100 µg/mL
[19]
  MIC: 0.39 µg/mL (≈ 0.489 µM)
PSEUDOMONAS CEPACIA 296I
  MIC: 100 µg/mL (≈ 125 µM)
[20]
  MIC: > 100 µg/mL
[21]
  MIC: > 100 µg/mL
CANDIDA ALBICANS CCH 442
  MIC: > 100 µg/mL
[22]
  MIC: 6.2 µg/mL (≈ 7.77 µM)

## CC[C@H]1OC(=O)[C@H](C)C(=O)[C@H](C)[C@@H](O[C@@H]2O[C@H](C)C[C@H](N(C)C)[C@H]2O)[C@](C)(OC)C[C@@H](C)C2=NC3CN(CCc4ccc(NC(C)=O)cc4)CC3N3C(=O)O[C@@]1(C)[C@H]3[C@H]2C (stereo partly drawn) [Example 122]
[1]
  MIC: 0.39 µg/mL (≈ 0.464 µM)
[2]
  MIC: 0.39 µg/mL (≈ 0.464 µM)
[3]
  MIC: > 100 µg/mL
[4]
  MIC: 0.78 µg/mL (≈ 0.928 µM)
[5]
  MIC: 0.78 µg/mL (≈ 0.928 µM)
[6]
  MIC: 0.78 µg/mL (≈ 0.928 µM)
[7]
  MIC: > 100 µg/mL
[8]
  MIC: 0.78 µg/mL (≈ 0.928 µM)
EN[…] ATCC 8043
  MIC: 0.78 µg/mL (≈ 0.928 µM)
M[…] ATCC 4698
  MIC: 1.56 µg/mL (≈ 1.86 µM)
M[…] ATCC 9341
  MIC: 0.05 µg/mL (≈ 0.0595 µM)
STR[…] 508
  MIC: 0.1 µg/mL (≈ 0.119 µM)
[9]
  MIC: 0.02 µg/mL (≈ 0.0238 µM)
[10]
  MIC: 0.02 µg/mL (≈ 0.0238 µM)
[11]
  MIC: 100 µg/mL (≈ 119 µM)
[12]
  MIC: 6.2 µg/mL (≈ 7.38 µM)
ESCHERICHIA COLI JUHL
  MIC: 100 µg/mL (≈ 119 µM)
ESCHERICHIA COLI SS
  MIC: 0.78 µg/mL (≈ 0.928 µM)
ESCHERICHIA COLI DC-2
  MIC: 100 µg/mL (≈ 119 µM)
ESCHERICHIA COLI H560
  MIC: 50 µg/mL (≈ 59.5 µM)
ESCHERICHIA COLI KNK 437
  MIC: 50 µg/mL (≈ 59.5 µM)
[13]
  MIC: 100 µg/mL (≈ 119 µM)
[14]
  MIC: > 100 µg/mL
[15]
  MIC: > 100 µg/mL
[16]
  MIC: > 100 µg/mL
[17]
  MIC: > 100 µg/mL
[18]
  MIC: > 100 µg/mL
[19]
  MIC: 0.78 µg/mL (≈ 0.928 µM)
PSEUDOMONAS CEPACIA 296I
  MIC: > 100 µg/mL
[20]
  MIC: > 100 µg/mL
[21]
  MIC: > 100 µg/mL
CANDIDA ALBICANS CCH 442
  MIC: > 100 µg/mL
[22]
  MIC: 25 µg/mL (≈ 29.8 µM)
